Results on one compound are retold here after US10273240B2, “Cortistatin analogues, syntheses, and uses thereof” (President and Fellows of Harvard College, priority 2015, dated 2019).

Read-outs that look alike come from different tables or passages of the source.

What is called GI50 is the concentration that inhibits growth by half.

One assay concerns SKNO-1. In words: Cell growth assay, SKNO-1. Type of assay: cell-based. To be noted: Homo sapiens, SKNO-1, 240 h. Here is the method:
All media was supplemented with 100 U/mL penicillin and 100 μg/mL streptomycin. Human cancer cell lines were grown in the following media: MV4; 11, K562, MOLM-14 in RPMI-1640, 10% FBS; SKNO-1 in RPMI-1640, 10% FBS, and 10 ng/mL GM-CSF; MV4;11 and K562 were from ATCC. SKNO-1 was from DSMZ.
(§1) Cell Culture. All media was supplemented with 100 U/mL penicillin and 100 μg/mL streptomycin. Human cancer cell lines were grown in the following media: MV4; 11, RS4; 11, K562, HEL, MOLM-14, MEG-01 in RPMI-1640, 10% FBS; SET-2 in RPMI-1640, 20% FBS; UKE-1 in RPMI-1640, 10% FBS, 10% horse serum and 1 μM hydrocortisone; SKNO-1 and TF-1 in RPMI-1640, 10% FBS, and 10 or 2 ng/mL GM-CSF, respectively; HaCaT in DMEM, 10% FBS; and HCT116 in McCoy's 5 A, 10% FBS (proliferation assay) or DMEM, 10% FBS (gene expression study). HepG2, MV4;11, RS4;11, MEG-01, TF-1, HCT116 and K562 were from ATCC. SKNO-1 was from DSMZ. HEL, UKE-1, and SET-2 were provided by Ross L. Levine and HaCaT, MV4;11-mCLP, and MOLM-14 by Van Wilson, Andrew L. Kung, and Scott A. Armstrong, respectively. MOLM-14 cells were authenticated by STR profiling and flow cytometry and all cell lines were routinely tested and found to be negative for mycoplasma.

Assay [1] has as its target T1, CDK13 in MOLM-14 cell lysate (Homo sapiens, UniProt Q14004).
T1 construct: endogenous in cells; host or cells: MOLM-14 cell lysate
In words: Native kinase capture immunoblot, CDK13. In kind it is binding. Here is the method:
Native Kinase Capture Immunoblot and Native Kinome-Wide Profiling. […] Experiment was performed twice with one immunoblot shown.
A general note: In western blotting, separated proteins are transferred to a membrane and probed.

Assay [2] relates to luciferase-expressing MV4;11 cells. As to the kind of experiment: MV4;11 xenotransplant model of disseminated human AML. To be noted: IP once daily for 15 days, NSG mice. Type of assay: in vivo. The procedure: In Vivo Studies. Studies were performed at Charles River Laboratories (CRL) and Dana Farber Cancer Institute (DFCI) where indicated and approved by Harvard University and each institution's respective animal care and use committee. For pharmacokinetic studies, serial blood samples from 7 week old male CD-1 mice (n=3 per timepoint) were collected (no blinding) into K2EDTA tubes, centrifuged, transferred into 96-well plates (matrix tubes), stored at −20° C., and analysed by HPLC/MS/MS (in-life performed at CRL). Study size was determined by the need for three blood samples per timepoint with three blood samples collected per mouse. The MV4; 11 xenograft model were performed as previously described (Etchin, J. et al. Antileukemic activity of nuclear export inhibitors that spare normal hematopoietic cells. Leukemia 27, 66-74 (2013); in-life performed at DFCI) Two million MV4;11-mCLP cells were injected into the tail vein of 7-week-old female NOD-SCID-IL2Rcγ^null (NSG) mice (The Jackson Laboratory) and tumor burden was assessed by bioluminescence imaging (BLI) using an IVIS Spectrum system (Caliper Life Sciences). […] After 30 days, blood counts were obtained (Hemavet 950 F, Drew Scientific) and spleen, femur, and peripheral blood cells were collected and analysed by flow cytometry (LSR Fortessa, BD Biosciences) from 3 mice/group. […]

The test system of a further assay is MEG-01. As to the kind of experiment: Cell growth assay, MEG-01. In kind it is cell-based. The conditions noted are these: Homo sapiens, MEG-01, 240 h; CA, after 10 days; read-out: Mean GI50 (nM), MEG-01. Here is the method:
as §1

T1 sequence (Q14004 whole entry): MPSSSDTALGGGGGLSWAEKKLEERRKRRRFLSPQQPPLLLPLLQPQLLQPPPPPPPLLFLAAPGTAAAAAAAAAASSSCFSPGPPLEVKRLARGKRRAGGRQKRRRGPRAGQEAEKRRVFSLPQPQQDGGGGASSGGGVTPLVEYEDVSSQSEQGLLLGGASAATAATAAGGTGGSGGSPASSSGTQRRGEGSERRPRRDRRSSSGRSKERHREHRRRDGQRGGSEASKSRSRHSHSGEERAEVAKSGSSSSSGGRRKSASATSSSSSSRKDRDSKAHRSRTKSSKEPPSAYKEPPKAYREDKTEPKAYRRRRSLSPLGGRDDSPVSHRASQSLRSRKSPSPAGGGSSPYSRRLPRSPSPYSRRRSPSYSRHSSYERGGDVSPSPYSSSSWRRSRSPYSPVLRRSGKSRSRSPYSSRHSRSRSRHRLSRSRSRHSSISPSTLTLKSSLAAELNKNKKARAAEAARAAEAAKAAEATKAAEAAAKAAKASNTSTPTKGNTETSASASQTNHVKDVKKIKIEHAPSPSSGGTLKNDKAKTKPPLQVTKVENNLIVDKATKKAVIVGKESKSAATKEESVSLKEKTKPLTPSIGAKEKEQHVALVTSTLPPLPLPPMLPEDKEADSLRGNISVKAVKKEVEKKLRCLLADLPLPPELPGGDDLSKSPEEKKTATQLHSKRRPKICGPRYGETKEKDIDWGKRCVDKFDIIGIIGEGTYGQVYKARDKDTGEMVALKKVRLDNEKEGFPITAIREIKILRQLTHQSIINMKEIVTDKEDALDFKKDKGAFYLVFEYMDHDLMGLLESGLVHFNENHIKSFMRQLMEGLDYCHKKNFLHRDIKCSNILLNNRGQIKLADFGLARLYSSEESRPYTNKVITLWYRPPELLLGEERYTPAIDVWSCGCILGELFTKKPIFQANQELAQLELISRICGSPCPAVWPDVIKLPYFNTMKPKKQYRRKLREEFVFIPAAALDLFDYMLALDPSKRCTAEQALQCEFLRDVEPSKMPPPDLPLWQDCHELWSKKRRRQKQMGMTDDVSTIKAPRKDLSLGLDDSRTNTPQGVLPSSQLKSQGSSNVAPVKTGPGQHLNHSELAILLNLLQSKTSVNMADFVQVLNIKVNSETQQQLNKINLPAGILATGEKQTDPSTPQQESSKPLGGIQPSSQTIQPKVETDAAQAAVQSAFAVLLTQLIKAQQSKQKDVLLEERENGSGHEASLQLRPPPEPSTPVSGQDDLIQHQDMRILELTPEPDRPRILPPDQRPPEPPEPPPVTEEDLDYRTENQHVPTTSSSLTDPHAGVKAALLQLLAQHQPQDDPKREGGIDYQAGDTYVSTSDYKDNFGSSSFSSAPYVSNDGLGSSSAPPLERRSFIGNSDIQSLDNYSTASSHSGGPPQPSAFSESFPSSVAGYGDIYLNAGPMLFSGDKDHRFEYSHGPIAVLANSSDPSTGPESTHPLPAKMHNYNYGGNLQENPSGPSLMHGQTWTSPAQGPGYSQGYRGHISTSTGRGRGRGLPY
T1 sequence (O75909 whole entry partner): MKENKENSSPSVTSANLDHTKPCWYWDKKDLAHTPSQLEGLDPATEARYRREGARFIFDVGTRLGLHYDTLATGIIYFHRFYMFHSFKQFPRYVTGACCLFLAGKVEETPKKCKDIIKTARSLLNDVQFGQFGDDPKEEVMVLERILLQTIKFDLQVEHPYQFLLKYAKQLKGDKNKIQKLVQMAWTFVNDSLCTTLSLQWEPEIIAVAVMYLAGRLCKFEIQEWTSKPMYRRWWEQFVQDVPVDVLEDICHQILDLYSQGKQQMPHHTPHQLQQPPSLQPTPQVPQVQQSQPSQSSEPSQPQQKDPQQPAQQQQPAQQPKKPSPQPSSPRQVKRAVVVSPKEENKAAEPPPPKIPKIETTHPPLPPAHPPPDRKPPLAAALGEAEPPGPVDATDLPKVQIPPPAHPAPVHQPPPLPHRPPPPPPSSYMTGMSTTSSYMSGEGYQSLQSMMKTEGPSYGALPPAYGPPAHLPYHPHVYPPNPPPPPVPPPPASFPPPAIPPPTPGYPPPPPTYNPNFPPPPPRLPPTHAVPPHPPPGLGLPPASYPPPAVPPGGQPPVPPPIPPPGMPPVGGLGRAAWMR

With `CN(C)[C@H]1C[C@@]23CC[C@@]4(O2)C(=CC[C@@]2(C)[C@@H](c5ccc6ccncc6c5)CC[C@H]24)C=C3[C@@H](O)[C@@H]1O` [CA, cortistatin A], the GI50 in the assay with SKNO-1 (CA, after 10 days, read-out: Mean GI50 (nM), SKNO-1) is 1 nM; in the assay with SKNO-1 (read-out: SKNO-1 GI50 day 10), less than 0.4 nM; with MEG-01, 9 nM. The “binding of CDK13 (no binding at up to)” value in assay [1] is on record as more than 2500 nM. Besides, in assay [2], the “disease progression (bioluminescence, spleen weight, leukemia cell burden, survival)” value is given as “dose-dependent reduction in disease progression”. Moreover, the “median extension in survival” value in assay [2] is 29.5 days.
